Assay results published in ChEMBL document CHEMBL1811792, “Ligand-based modelling followed by synthetic exploration unveil novel glycogen phosphorylase inhibitory leads” (Bioorg Med Chem, 2011).

Legend:
[1] = target: T1, Glycogen phosphorylase, muscle form (Oryctolagus cuniculus) (UniProt P00489); experiment: Inhibition of rabbit muscle glycogen phosphorylase […] assessed as release of phosphate from glucose-1- phosphate at 10 uM after 20 mins
T1 sequence (whole entry): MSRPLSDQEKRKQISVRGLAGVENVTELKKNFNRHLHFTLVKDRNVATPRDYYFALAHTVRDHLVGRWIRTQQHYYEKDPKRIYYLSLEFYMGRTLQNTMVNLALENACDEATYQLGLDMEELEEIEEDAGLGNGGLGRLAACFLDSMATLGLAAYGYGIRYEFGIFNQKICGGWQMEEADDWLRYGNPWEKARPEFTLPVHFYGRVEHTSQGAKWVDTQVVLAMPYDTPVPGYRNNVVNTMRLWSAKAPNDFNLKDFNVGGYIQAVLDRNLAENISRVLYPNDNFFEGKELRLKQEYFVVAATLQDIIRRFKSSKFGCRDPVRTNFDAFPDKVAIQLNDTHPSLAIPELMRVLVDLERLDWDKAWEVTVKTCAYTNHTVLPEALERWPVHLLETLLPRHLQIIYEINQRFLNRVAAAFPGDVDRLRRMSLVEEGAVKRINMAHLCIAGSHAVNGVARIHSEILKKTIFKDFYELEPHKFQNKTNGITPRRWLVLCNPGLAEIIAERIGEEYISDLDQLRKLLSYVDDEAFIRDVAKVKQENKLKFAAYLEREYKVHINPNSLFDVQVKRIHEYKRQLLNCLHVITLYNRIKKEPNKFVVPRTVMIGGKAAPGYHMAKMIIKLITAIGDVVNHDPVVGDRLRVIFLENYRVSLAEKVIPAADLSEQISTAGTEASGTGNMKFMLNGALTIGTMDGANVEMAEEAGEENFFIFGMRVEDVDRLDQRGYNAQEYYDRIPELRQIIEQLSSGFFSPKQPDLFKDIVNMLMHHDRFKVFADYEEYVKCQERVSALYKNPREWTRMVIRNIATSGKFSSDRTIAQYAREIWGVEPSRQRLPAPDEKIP

[2] = target: T2, Glycogen phosphorylase, muscle form (Oryctolagus cuniculus, UniProt P00489); experiment: Inhibition of rabbit muscle glycogen phosphorylase […] assessed as release of phosphate from glucose-1- phosphate after 20 mins
T2 sequence (P00489 whole entry): T1 sequence (whole entry)

Compound	inhibition [1] [%]	IC50 [2] [µM]
COc1ccc2cc(-c3ccc(OC)c(OC)c3)c(=O)oc2c1	24	
CSc1ccc(NC(=O)Nc2ccccc2C(N)=O)cc1	17	
Cc1ccc(S(=O)(=O)CC2CCc3ccccc3C2=O)cc1 (stereo unspecified)	49	16.5
Cc1cc(S(=O)(=O)Nc2nnc3c4ccccc4ccn23)c(S)cc1Cl	42	7.5
NC(=O)c1ccccc1NC(=O)COc1ccc(Cl)cc1	38	
CSc1ccc(NC(=O)C2CCCCC2C(=O)O)cc1 (stereo unspecified)	17	
O=C(CC(=O)NCc1ccccc1)NCc1ccccc1	1	
O=C1Oc2ccccc2N/C1=C/C(=O)c1ccc(Cl)cc1	26	
CSc1cccc(NC(=O)Nc2ccccc2C(N)=O)c1	36	
Cc1cc(S(=O)(=O)Nc2nnc3c(C(F)(F)F)cc(Cl)cn23)c(S)cc1Cl	53	5.9
C/C=C/c1cc(OC)c2c(c1)[C@H](C)[C@@H](c1ccc(O)c(OC)c1)O2	8	
Cc1ccccc1NC(=O)CC(=O)Nc1ccccc1C	2	
CCOC(=O)C(=O)CC(=O)c1ccc(OC)cc1	34	
CCOc1ccc(NC(=O)c2cc3ccccc3cc2O)cc1	22	
Cc1ccccc1NC(=O)C(=O)Nc1ccccc1C	55	5.4
COC(=O)c1ccccc1NC(=O)Nc1cccc(OC)c1	12	
Cc1cccc(NC(=O)CC(=O)Nc2cccc(C)c2)c1	4	
Cc1cc(S(=O)(=O)Nc2nc3ccccc3[nH]2)c(S)cc1Cl	45	6.9
CN(C)c1ccc(/C=C/C(=O)c2cc(Cl)ccc2O)cc1	25	
COC(=O)c1ccccc1NC(=O)Nc1ccc(SC)cc1	7	
COc1ccccc1NC(=O)C(=O)Nc1ccccn1	5	
